Laboratory results from patent US11919873B1, “1,3-benzothiazol-2-yl-N′-(benzoyloxy)ethanimidamide as an antitumor and antimicrobial compound” (priority 2023, dated 2024).

How the values were obtained:
[1] = test system: Bacillus cereus, Staphylococcus aureus, Pseudomonas aeruginosa, Escherichia coli, Aspergillus flavus, Chrysosporium keratinophilum; test: Agar plate disc-diffusion antimicrobial test; type: cell-based; conditions: 10 μL of 10 mg/mL in DMSO per disc, bacteria and fungi, result in words only
Description: The agar plate disc-diffusion method was applied. Sterilized filter papers (6 mm in diameter) were wetted with 10 μL of a solution of each compound to be tested, containing 10 mg/mL in DMSO, and the discs were allowed to air dry. The discs were then placed onto the surface of agar plates (nutrient agar for bacteria and Sabouraud's dextrose agar for fungi) and seeded with the test organism. Each plate contained 15 mL of the agar medium, previously seeded with 0.2 mL of the broth culture of each organism pre-grown for 18 hours. The plates were incubated at 37° C. for 48 hours, and 72 hours for fungi. The inhibition zones were measured in mm. Discs impregnated with DMSO were used as a control, and its inhibition zone was subtracted from the tested compound actual inhibition zone. In particular, the present 1,3-benzothiazol-2-yl-N′-(benzoyloxy)ethanimidamide was screened against gram positive bacteria, namely Bacillus cereus and Staphylococcus aureus, and gram-negative bacterial strains, namely Pseudomonas aeruginosa and Escherichia coli, while the antifungal activity was screened against Aspergillus flavus and Chrysosporium keratinophilum.

[2] = test system: human prostate cancer cells (PC3); test: Assessment of cytotoxicity by SRB assay, PC3; type: cell-based; conditions: 72 h, 0.01 μM to 100 μM, result in words only
Description: (§1) The human prostate cancer cells (PC3) and human osteosarcoma cells (MG-63) were obtained from Nawah Scientific Inc. (Mokatam, Cairo, Egypt) and cultured in DMEM (Dulbecco's modified eagle's medium), Gibco, USA, supplemented with fetal bovine serum (FBS) at a concentration of 10% and 100 U/mL of penicillin and streptomycin (PS). The cells were incubated at 37° C. in a humidified environment that contained 5% CO2. Cells were seeded in 96-well plates as aliquots of 100 μL cell suspension and incubated in a complete media for 24 h. Afterward, cells were treated with 3-(4-chlorophenyl)-5-{[5-methyl-2-(propan-2-yl)phenoxy]methyl}-1,2,4-oxadiazole at diverse concentrations ranging from 0.01 μM to 100 μM for 72 h. Then, cells were fixed at 4° C. for one hour with 150 μL of 10% trichloroacetic acid (TCA). […] Then, 150 μL of Tris pH 10.5 (10 mM) was added, and the absorbance was measured at 540 nm using a BMG LABTECH®—FLUOstar Omega microplate reader (Ortenberg, Germany). Half maximal inhibitory concentrations (IC50) values were calculated for each experiment using GraphPad Prism 6 software. […] The inhibition was calculated using the following equation: Inhibition %=100−Average Viability The anticancer activity of 1,3-benzothiazol-2-yl-N′-(benzoyloxy)ethanimidamide was assessed against highly aggressive androgen-independent metastatic human prostate cancer cells (PC3) and osteosarcoma (MG-63) cells.

[3] = test system: human osteosarcoma cells (MG-63); test: Assessment of cytotoxicity by SRB assay, MG-63; type: cell-based; conditions: 72 h, 0.01 μM to 100 μM, result in words only
Description: as §1

N/C(Cc1nc2ccccc2s1)=N\OC(=O)c1ccccc1 [1,3-benzothiazol-2-yl-N′-(benzoyloxy)ethanimidamide]
antimicrobial activity against different microbes [1]: excellent antimicrobial activities
melting point: 153 to 155 °C
antiproliferative activity against PC3 cells [2]: excellent antiproliferative activities
antiproliferative activity against MG-63 cells [3]: excellent antiproliferative activities
